{
  "source": "ChEMBL document CHEMBL4834492",
  "about": "“Targeting the KRAS G12D Mutant as Potential Therapy in Cancer” (ACS Med Chem Lett, 2021)",
  "data": [
    {"molecular_target": "GTPase KRas (Homo sapiens, UniProt P01116, G12D)", "sequence (P01116 whole entry G12D)": "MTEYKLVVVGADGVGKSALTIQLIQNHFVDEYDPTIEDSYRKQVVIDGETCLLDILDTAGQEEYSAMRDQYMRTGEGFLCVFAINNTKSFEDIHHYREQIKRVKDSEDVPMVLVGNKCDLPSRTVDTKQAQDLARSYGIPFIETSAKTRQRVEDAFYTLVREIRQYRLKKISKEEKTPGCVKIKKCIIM", "assay": "Inhibition of recombinant his-tagged KRAS G12D mutant (unknown origin) expressed in Escherichia coli BL21(DE3) assessed as inhibition of GDP-GTP exchange rate in presence of recombinant SOS1/GMPPNP incubated for 1 hr by BODIPY fluorescence assay", "details": "not given", "units": {"IC50": "nM"}, "values": [
      {"smiles": "Oc1cc(N2CCc3c(nc(OCC4(CN5CCOCC5)CC4)nc3N3CC4CCC(C3)N4)C2)c2c(Br)cccc2c1", "IC50": 1.2}
    ]},
    {"system": "A-427", "assay": "Antiproliferative activity against human A427 cells expressing KRAS G12D mutant assessed as inhibition of cell growth measured after 3 days by CellTiter-Glo assay", "format": "functional, cell-based", "details": "A-427, 72 h", "units": {"IC50": "nM"}, "values": [
      {"smiles": "CN(C)CC1(COc2nc3c(c(N4CC5CCC(C4)N5)n2)CCN(c2cc(O)cc4cccc(I)c24)C3)CC1", "IC50": 580},
      {"smiles": "CN1C[C@H](F)C[C@H]1COc1nc2c(c(N3CC4CCC(C3)N4)n1)CCN(c1cc(O)cc3cccc(Br)c13)C2", "IC50": 650},
      {"smiles": "Cc1cccc2cc(O)cc(N3CCc4c(nc(OCC5(CN6CCOCC6)CC5)nc4N4CC5CCC(C4)N5)C3)c12", "IC50": 550},
      {"smiles": "Oc1cc(N2CCc3c(nc(OCC4(CN5CCOCC5)CC4)nc3N3CC4CCC(C3)N4)C2)c2c(I)cccc2c1", "IC50": 350},
      {"smiles": "Oc1cc(N2CCc3c(nc(OCC4(CN5CCOCC5)CC4)nc3N3CC4CCC(C3)N4)C2)c2c(Br)cccc2c1", "IC50": 590},
      {"smiles": "Oc1cc(N2CCc3c(nc(OCC4(CN5CC[C@@H](F)C5)CC4)nc3N3CC4CCC(C3)N4)C2)c2c(Br)cccc2c1", "IC50": 540},
      {"smiles": "Oc1cc(N2CCc3c(nc(OCC4(CN5CC[C@@H](F)C5)CC4)nc3N3CC4CCC(C3)N4)C2)c2c(I)cccc2c1", "IC50": 470},
      {"smiles": "CN(C)CC1(COc2nc3c(c(N4CC5CCC(C4)N5)n2)CCN(c2cc(O)cc4cccc(Br)c24)C3)CC1(F)F", "note": "(centres undefined)", "IC50": 540}
    ]}
  ]
}
